Patent US12084445B2, “Broad-spectrum carbapenems” (VenatoRx Pharmaceuticals, Inc., priority 2018, dated 2024)
Where two headings read alike, the source gives them in different places.

Assays:
Format in all cases: cell-based
[1] = tested on: S. aureus ATCC 29213 (methicillin sensitive); experiment: broth microdilution MIC assay, S. aureus ATCC 29213; conditions: Staphylococcus aureus, ATCC 29213 / MSSA; Table 3; S. aureus 29213 (MSSA); read-out: S. aureus 29213 (MSSA) MIC
Experimental: (§1) To determine the ability of test compounds to potentiate the inhibition of the growth of bacterial strains, classic cell-based broth microdilution MIC assays were employed. MIC assays are performed according to CLSI methods except where otherwise noted (CLSI, 2011 and CLSI, 2009). The reference strains S. aureus ATCC 29213 (methicillin sensitive), S. aureus ATCC 33591 (methicillin-resistant), E. coli ATCC 25922 (wild-type/QC strain), P. aeruginosa ATCC 27853 (wild-type/QC strain), and the clinical isolate P. aeruginosa PA 8 were used to determine the ability of the exemplary carbapenem compounds to inhibit bacterial growth. An expanded panel of methicillin resistance S. aureus (MRSA) and Pseudomonas was also used to determine the ability of exemplary carbapenem compounds to inhibit bacterial growth across a broader representation of those species. To determine activity in MRSA and in addition to S. aureus ATCC 33591, S. aureus USA 300, USA 400 and USA 600, some of the most common clones found to cause human infection, were also used. To further gauge the impact on the carbapenem compounds due to various resistance mechanisms in Pseudomonas, the following strains were included: P. aeruginosa 35151 (hyper-permeable strain), P. aeruginosa AmexAB-OprM (an efflux pump knockout), and P. aeruginosa PA 3 (a clinical isolate of reduced carbapenem susceptibility). Briefly, cryo-preserved bacterial cultures of clinical strains are streaked for isolation on appropriate agar medium, in this case Mueller Hinton II agar. Following incubation to allow formation of colonies, these plates are sealed with parafilm and stored refrigerated for up to two weeks. For preparation of assay inocula and to ensure low variability, at least 5 colonies are picked from the agar plates with an inoculating loop and aseptically transferred to a culture tube containing 3 mL of Mueller-Hinton Broth (supplemented with divalent cations to required levels based on Manufacturers' specification). The broth culture is grown for 3-5 hours at 37° C. with shaking at 200 rpm. Meanwhile, 2-fold serial dilutions of test compounds are conducted in a 96 well plate with a final volume of 75 μL per well at 2-fold the final desired concentration. After the dilution plates are set up the growing cultures are then diluted in a cuvette containing MH II broth and the optical density is measured at 600 nm. Inocula are diluted such that 75 μL of this culture in Mueller-Hinton Broth results in a starting bacterial concentration of 5×10^5 CFU/mL when added to the dilution plates. The plates are incubated 16-20 hours at 37° C. The MIC is read visually as the lowest concentration well with no bacterial growth.
(§2) Representative results are shown in Tables 3, 4, and 5 where A represents an MIC>32 μg/mL, B represents an MIC between 8 and 32 μg/mL inclusive, C represents an MIC between 1 and 4 μg/mL inclusive, and D represents an MIC of <1 μg/mL. NT=Not Tested.

[2] = tested on: S. aureus ATCC 33591 (methicillin-resistant); experiment: broth microdilution MIC assay, S. aureus ATCC 33591; conditions: Staphylococcus aureus
Method in brief: (§3)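 Colonies from Mueller Hinton II agar → MH broth (divalent cations supplemented), 37 °C, 200 rpm, 3-5 h → OD600-adjusted to 5×10^5 CFU/mL final → 2-fold serial compound dilutions → 16-20 h, 37 °C → visual MIC.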

[3] = tested on: P. aeruginosa ATCC 27853 (wild-type/QC strain); experiment: broth microdilution MIC assay, P. aeruginosa ATCC 27853; conditions: Pseudomonas aeruginosa, ATCC27853, P. aeruginosa 27853, read-out: P. aeruginosa 27853 MIC
Method in brief: as §3

[4] = tested on: E. coli ATCC 25922 (wild-type/QC strain); experiment: broth microdilution MIC assay, E. coli ATCC 25922; conditions: Escherichia coli, ATCC25922, E. coli 25922, read-out: E. coli 25922 MIC
Method in brief: as §3

[5] = tested on: P. aeruginosa 35151 (hyper-permeable strain); experiment: broth microdilution MIC assay, P. aeruginosa 35151; conditions: Pseudomonas aeruginosa, read-out: P. aeruginosa 35151 MIC
Experimental: as §1, §2

[6] = tested on: P. aeruginosa ΔmexAB-OprM (an efflux pump knockout); experiment: broth microdilution MIC assay, P. aeruginosa ΔmexAB-OprM; conditions: Pseudomonas aeruginosa, 20 h, read-out: P. aeruginosa ΔmexAB-OprM MIC
Experimental: as §1, §2

[7] = tested on: S. aureus USA 300; experiment: broth microdilution MIC assay, S. aureus USA 300; conditions: Staphylococcus aureus; Table 4; S. aureus USA300; read-out: S. aureus USA300 MIC
Experimental: as §1, §2

[8] = tested on: S. aureus USA600; experiment: broth microdilution MIC assay, S. aureus USA 600; conditions: Staphylococcus aureus; Table 4; S. aureus USA600; read-out: S. aureus USA600 MIC
Experimental: as §1, §2

[9] = ATCC 33591 / MRSA, Table 3, S. aureus 33591 (MRSA), read-out: S. aureus 33591 (MRSA) MIC
[10] = ATCC33591, Table 4, S. aureus 33591, read-out: S. aureus 33591 MIC

MIC [1]	MIC [2, 9]	MIC ([3]; Table 3)	MIC ([4]; Table 3)	Compound	MIC [5]	MIC [6]	MIC [7]	MIC [8]	MIC [2, 10]	MIC ([3]; Table 5)	MIC ([4]; Table 4)
< 1 µg/mL	8 to 32 µg/mL	1 to 4 µg/mL	< 1 µg/mL	C[C@@H](O)[C@H]1C(=O)N2C(C(=O)O)=C(S[C@@H]3CCN(C4CCNCC4)C3)[C@H](C)[C@H]12 [Example 1, (4R,5S,6S)-6-((R)-1-hydroxyethyl)-4-methyl-7-oxo-3-(((R)-1-(piperidin-4-yl)pyrrolidin-3-yl)thio)-1-azabicyclo[3.2.0]hept-2-ene-2-carboxylic acid]							
< 1 µg/mL	8 to 32 µg/mL	1 to 4 µg/mL	< 1 µg/mL	C[C@@H](O)[C@H]1C(=O)N2C(C(=O)O)=C(S[C@@H]3C[C@@H](CO)N(C4CCNCC4)C3)[C@H](C)[C@H]12 [Example 5, (4R,5S,6S)-6-((R)-1-hydroxyethyl)-3-(((3R,5S)-5-(hydroxymethyl)-1-(piperidin-4-yl)pyrrolidin-3-yl)thio)-4-methyl-7-oxo-1-azabicyclo[3.2.0]hept-2-ene-2-carboxylic acid]							
< 1 µg/mL	8 to 32 µg/mL	8 to 32 µg/mL	< 1 µg/mL	C[C@@H](O)[C@H]1C(=O)N2C(C(=O)O)=C(S[C@@H]3CCN(Cc4cccnc4)C3)[C@H](C)[C@H]12 [Example 10, (4R,5S,6S)-6-((R)-1-hydroxyethyl)-4-methyl-7-oxo-3-(((R)-1-(pyridin-3-ylmethyl)pyrrolidin-3-yl)thio)-1-azabicyclo[3.2.0]hept-2-ene-2-carboxylic acid]							
< 1 µg/mL	8 to 32 µg/mL	8 to 32 µg/mL	< 1 µg/mL	C[C@@H](O)[C@H]1C(=O)N2C(C(=O)O)=C(S[C@@H]3CCN(CC4CCCNC4)C3)[C@H](C)[C@H]12 (stereo partly drawn) [Example 12, (4R,5S,6S)-6-((R)-1-hydroxyethyl)-4-methyl-7-oxo-3-(((3R)-1-(piperidin-3-ylmethyl)pyrrolidin-3-yl)thio)-1-azabicyclo[3.2.0]hept-2-ene-2-carboxylic acid]							
< 1 µg/mL	8 to 32 µg/mL	8 to 32 µg/mL	< 1 µg/mL	C[C@@H](O)[C@H]1C(=O)N2C(C(=O)O)=C(S[C@@H]3CCN(CC4CCCCN4)C3)[C@H](C)[C@H]12 (stereo partly drawn) [Example 13, (4R,5S,6S)-6-((R)-1-hydroxyethyl)-4-methyl-7-oxo-3-(((3R)-1-(piperidin-2-ylmethyl)pyrrolidin-3-yl)thio)-1-azabicyclo[3.2.0]hept-2-ene-2-carboxylic acid]							
< 1 µg/mL	8 to 32 µg/mL	8 to 32 µg/mL	< 1 µg/mL	C[C@@H](O)[C@H]1C(=O)N2C(C(=O)O)=C(S[C@@H]3CCN(C[C@@H]4CCCN4)C3)[C@H](C)[C@H]12 [Example 14, (4R,5S,6S)-6-((R)-1-hydroxyethyl)-4-methyl-7-oxo-3-(((R)-1-(((S)-pyrrolidin-2-yl)methyl)pyrrolidin-3-yl)thio)-1-azabicyclo[3.2.0]hept-2-ene-2-carboxylic acid]							
< 1 µg/mL	8 to 32 µg/mL	8 to 32 µg/mL	< 1 µg/mL	C[C@@H](O)[C@H]1C(=O)N2C(C(=O)O)=C(S[C@@H]3CCN(CC4(C)CCNCC4)C3)[C@H](C)[C@H]12 [Example 15, (4R,5S,6S)-6-((R)-1-hydroxyethyl)-4-methyl-3-(((R)-1-((4-methylpiperidin-4-yl)methyl)pyrrolidin-3-yl)thio)-7-oxo-1-azabicyclo[3.2.0]hept-2-ene-2-carboxylic acid]							

Second part, the molecule before the results:

Compound	MIC [1]	MIC [2, 9]	MIC ([3]; Table 3)	MIC ([4]; Table 3)	MIC [5]	MIC [6]	MIC [7]	MIC [8]	MIC [2, 10]	MIC ([3]; Table 5)	MIC ([4]; Table 4)
CCN[C@H]1CC[C@@H](CN2CC(SC3=C(C(=O)O)N4C(=O)[C@H]([C@@H](C)O)[C@H]4[C@H]3C)C2)CC1 [Example 70, (4R,5S,6S)-3-((1-(((1s,4S)-4-(ethylamino)cyclohexyl)methyl)azetidin-3-yl)thio)-6-((R)-1-hydroxyethyl)-4-methyl-7-oxo-1-azabicyclo[3.2.0]hept-2-ene-2-carboxylic acid]					< 1 µg/mL	1 to 4 µg/mL	1 to 4 µg/mL	1 to 4 µg/mL	1 to 4 µg/mL	1 to 4 µg/mL	< 1 µg/mL
C[C@@H](O)[C@H]1C(=O)N2C(C(=O)O)=C(SC3CN(CCC4CCN(C(=N)N)CC4)C3)[C@H](C)[C@H]12 [Example 71, (4R,5S,6S)-3-((1-(2-(1-carbamimidoylpiperidin-4-yl)ethyl)azetidin-3-yl)thio)-6-((R)-1-hydroxyethyl)-4-methyl-7-oxo-1-azabicyclo[3.2.0]hept-2-ene-2-carboxylic acid]					< 1 µg/mL	1 to 4 µg/mL	1 to 4 µg/mL	< 1 µg/mL	1 to 4 µg/mL	1 to 4 µg/mL	< 1 µg/mL
C[C@@H](O)[C@H]1C(=O)N2C(C(=O)O)=C(SC3CN(C[C@H]4CC[C@H](N(C)C(=N)N)CC4)C3)[C@H](C)[C@H]12 [Example 72, (4R,5S,6S)-6-((R)-1-hydroxyethyl)-4-methyl-3-((1-(((1r,4R)-4-(1-methylguanidino)cyclohexyl)methyl)azetidin-3-yl)thio)-7-oxo-1-azabicyclo[3.2.0]hept-2-ene-2-carboxylic acid]					< 1 µg/mL	1 to 4 µg/mL	1 to 4 µg/mL	< 1 µg/mL	1 to 4 µg/mL	8 to 32 µg/mL	< 1 µg/mL
C[C@@H](O)[C@H]1C(=O)N2C(C(=O)O)=C(SC3CN(C[C@H]4CC[C@@H](NC(=N)N)CC4)C3)[C@H](C)[C@H]12 [Example 73, (4R,5S,6S)-3-((1-(((1s,4S)-4-guanidinocyclohexyl)methyl)azetidin-3-yl)thio)-6-((R)-1-hydroxyethyl)-4-methyl-7-oxo-1-azabicyclo[3.2.0]hept-2-ene-2-carboxylic acid]					< 1 µg/mL	< 1 µg/mL	1 to 4 µg/mL	< 1 µg/mL	1 to 4 µg/mL	1 to 4 µg/mL	< 1 µg/mL
C[C@@H](O)[C@H]1C(=O)N2C(C(=O)O)=C(SC3CN(C[C@H]4CC[C@@H](N(C)C(=N)N)CC4)C3)[C@H](C)[C@H]12 [Example 74, (4R,5S,6S)-6-((R)-1-hydroxyethyl)-4-methyl-3-((1-(((1s,4S)-4-(1-methylguanidino)cyclohexyl)methyl)azetidin-3-yl)thio)-7-oxo-1-azabicyclo[3.2.0]hept-2-ene-2-carboxylic acid]					< 1 µg/mL	1 to 4 µg/mL	1 to 4 µg/mL	1 to 4 µg/mL	1 to 4 µg/mL	8 to 32 µg/mL	< 1 µg/mL
